Assays:
Experiment in all cases: relative viability (nuclei count vs DMSO), 5 days (fraction); higher = more cells survive
[1] = compound: C1=CC=C2C(=C1)C=CC(=C2SSC3=C(C=CC4=CC=CC=C43)O)O [IPA-3] + O=C(c1cc(Cc2n[nH]c(=O)c3ccccc23)ccc1F)N1CCN(C(=O)C2CC2)CC1 [Olaparib] (partner 8 µM)
In short: (§1)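 Relative viability is defined as nuclei in treated wells over nuclei in vehicle wells. Duplicate plates were run and medians reported. Lung cancer cell lines in 1536-well plates were dosed by pin tool one day after seeding, with one drug or with a fixed anchor-drug dose plus five library-drug doses (not always all listed) in √10 steps, and nuclei were counted after 5 days.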

[2] = compound: Cc1ccc(-n2nc(C(C)(C)C)cc2NC(=O)Nc2ccc(OCCN3CCOCC3)c3ccccc23)cc1 [Doramapimod] + CS(=O)(=O)N1CCN(Cc2cc3nc(-c4cccc5[nH]ncc45)nc(N4CCOCC4)c3s2)CC1 [Pictilisib] (partner 1 µM)
In short: as §1

[3] = compound: Cc1ccc(-n2nc(C(C)(C)C)cc2NC(=O)Nc2ccc(OCCN3CCOCC3)c3ccccc23)cc1 [Doramapimod] + Cc1nc(Nc2ncc(C(=O)Nc3c(C)cccc3Cl)s2)cc(N2CCN(CCO)CC2)n1 [Dasatinib] (partner 0.075 µM)
In short: as §1

[4] = compound: Cc1ccc(-n2nc(C(C)(C)C)cc2NC(=O)Nc2ccc(OCCN3CCOCC3)c3ccccc23)cc1 [Doramapimod] + NC(=O)Nc1cc(-c2cccc(F)c2)sc1C(=O)N[C@H]1CCCNC1 [AZD7762] (partner 0.2 µM)
In short: as §1

| Cell Line | relative viability ([1]; first compound 0.2 µM) | relative viability ([1]; first compound 0.6325 µM) | relative viability ([1]; first compound 2 µM) | relative viability ([1]; first compound 6.325 µM) | relative viability ([1]; first compound 20 µM) | relative viability ([2]; first compound 0.02 µM) | relative viability ([2]; first compound 0.06325 µM) | relative viability ([2]; first compound 0.2 µM) | relative viability ([2]; first compound 0.6325 µM) | relative viability ([2]; first compound 2 µM) | relative viability ([3]; first compound 0.02 µM) | relative viability ([3]; first compound 0.06325 µM) | relative viability ([3]; first compound 0.2 µM) | relative viability ([3]; first compound 0.6325 µM) | relative viability ([3]; first compound 2 µM) | relative viability ([4]; first compound 0.02 µM) | relative viability ([4]; first compound 0.06325 µM) | relative viability ([4]; first compound 0.2 µM) | relative viability ([4]; first compound 0.6325 µM) | relative viability ([4]; first compound 2 µM) |
| --- | --- | --- | --- | --- | --- | --- | --- | --- | --- | --- | --- | --- | --- | --- | --- | --- | --- | --- | --- | --- |
| A549 | 0.375 | 0.312 | 0.302 | 0.331 | 0.414 | 0.533 | 0.492 | 0.522 | 0.497 | 0.421 |  |  |  |  |  |  |  |  |  |  |
| COR-L23 | 0.314 | 0.34 | 0.406 | 0.281 | 0.301 | 0.812 | 0.791 | 0.796 | 0.797 | 0.751 | 0.527 | 0.554 | 0.5 | 0.545 | 0.513 |  |  |  |  |  |
| COR-L 105 | 0.757 | 0.622 | 0.663 | 0.755 | 0.665 | 0.425 | 0.344 | 0.374 | 0.426 | 0.379 | 0.316 | 0.305 | 0.302 | 0.376 | 0.367 |  |  |  |  |  |
| Calu-6 | 0.629 | 0.503 | 0.617 | 0.596 | 0.426 | 0.89 | 0.891 | 0.91 | 0.997 | 0.844 |  |  |  |  |  |  |  |  |  |  |
| EBC-1 | 0.904 | 0.668 | 0.715 | 0.607 | 0.493 | 0.355 | 0.279 | 0.363 | 0.355 | 0.247 |  |  |  |  |  |  |  |  |  |  |
| HCC-44 | 0.961 | 0.983 | 1.03 | 1.02 | 1.02 | 1.46 | 0.58 | 0.546 | 0.581 | 0.35 |  |  |  |  |  | 1.06 | 1.02 | 1.04 | 1.01 | 1.07 |
| IA-LM | 1.22 | 0.814 | 0.906 | 0.651 | 0.814 | 0.176 | 0.257 |  | 0.343 | 0.288 |  |  |  |  |  |  |  |  |  |  |
| NCI-H520 | 0.322 | 0.278 |  | 0.367 | 0.298 | 0.238 | 0.278 | 0.252 | 0.288 | 0.22 | 0.183 | 0.166 | 0.148 | 0.213 | 0.182 |  |  |  |  |  |
| NCI-H522 | 0.52 | 0.663 | 0.699 | 0.571 | 0.671 |  |  |  |  |  | 0.715 | 0.851 | 0.863 | 0.785 | 0.812 | 0.879 | 0.744 | 0.708 | 0.736 | 0.9 |
| NCI-H661 | 0.784 | 0.705 | 0.786 | 0.716 | 0.738 | 0.483 | 0.405 | 0.381 | 0.452 | 0.377 | 0.703 | 0.855 | 1.04 | 1.19 | 0.909 |  |  |  |  |  |
| NCI-H1299 | 1.02 | 0.953 | 0.983 | 0.963 | 0.983 | 0.769 | 0.444 | 0.751 | 0.597 | 0.521 |  |  |  |  |  |  |  |  |  |  |
| NCI-H1563 |  |  |  |  |  | 0.677 | 0.633 | 0.634 | 0.724 | 0.645 | 0.437 | 0.478 | 0.44 | 0.82 | 0.421 |  |  |  |  |  |
| NCI-H1623 |  |  |  |  |  |  |  |  |  |  | 0.534 | 0.522 | 0.497 | 0.495 | 0.521 |  |  |  |  |  |
| NCI-H1648 | 1.05 | 0.906 | 0.84 | 0.739 | 0.873 |  |  |  |  |  |  |  |  |  |  | 0.653 | 0.695 | 0.63 | 0.548 | 0.59 |
| NCI-H1650 | 0.947 | 0.74 | 0.877 | 0.715 | 0.746 | 0.537 | 0.629 | 0.724 | 0.329 | 0.474 | 0.366 | 0.294 | 0.338 | 0.402 | 0.217 |  |  |  |  |  |
| NCI-H1703 | 0.807 | 0.479 | 0.38 | 0.459 | 0.581 | 0.234 | 0.226 | 0.236 | 0.248 | 0.215 |  |  |  |  |  |  | 0.118 | 0.108 | 0.0991 | 0.113 |
| NCI-H2009 | 0.662 | 0.68 | 0.708 | 0.635 | 0.622 | 0.812 | 0.656 | 0.826 | 0.395 | 0.823 | 0.345 | 0.382 | 0.422 | 0.529 | 0.297 |  |  |  |  |  |
| NCI-H2023 | 0.514 | 0.503 | 0.624 | 0.547 | 0.395 | 0.25 | 0.195 | 0.195 | 0.152 | 0.213 | 0.601 | 0.521 | 0.533 | 0.645 | 0.512 |  |  |  |  |  |
| NCI-H2228 | 0.662 | 0.514 | 0.404 | 0.559 | 0.471 | 0.374 | 0.563 | 0.417 | 0.366 | 0.337 | 0.561 | 0.48 | 0.452 | 0.49 | 0.398 |  |  |  |  |  |
| SK-LU-1 | 0.536 | 0.456 | 0.494 | 0.389 | 0.466 | 0.511 | 0.627 | 0.657 | 0.726 | 0.603 | 0.16 | 0.182 | 0.195 | 0.204 | 0.218 |  |  |  |  |  |
| SK-MES-1 | 0.763 | 0.694 | 0.652 | 0.498 | 0.241 | 0.405 | 0.282 | 0.304 | 0.291 | 0.269 | 0.374 | 0.406 | 0.413 | 0.41 | 0.33 |  |  |  |  |  |
| SW 1573 | 0.665 | 0.403 | 0.404 | 0.403 | 0.0864 | 0.448 | 0.375 | 0.408 | 0.423 | 0.379 | 0.461 | 0.394 | 0.588 | 0.685 | 0.411 |  |  |  |  |  |

From the supplement of paper PMC10307832
